Measured values taken from ChEMBL document CHEMBL3885881, “DrugMatrix”.

Species: Rattus norvegicus
Experiment: DrugMatrix - Regimen: Daily Repeat
Format: toxicity, organism-based, Sprague-Dawley
Parameters: regimen Daily Repeat, gender Male, age 6-8 weeks
Details: in vivo, po, route oral GAVAGE; for ABSOLUTE BASOPHIL / ABSOLUTE EOSINOPHIL / ABSOLUTE LYMPHOCYTE / ABSOLUTE MONOCYTE / ABSOLUTE SEGMENTED NEUTROPHIL / BASOPHIL / EOSINOPHIL / ERYTHROCYTE COUNT / HEMATOCRIT / HEMOGLOBIN / LEUKOCYTE COUNT / LYMPHOCYTE / MEAN CORPUSCULAR HEMOGLOBIN / MEAN CORPUSCULAR HEMOGLOBIN CONCENTRATION / MEAN CORPUSCULAR VOLUME / MONOCYTE / NEUTROPHIL / NUCLEATED RED BLOOD CELLS / PLATELET COUNT: tissue Blood; for ALANINE AMINOTRANSFERASE / ALBUMIN / ALKALINE PHOSPHATASE / ASPARTATE AMINOTRANSFERASE / BLOOD UREA NITROGEN / CARBON DIOXIDE / CHLORIDE / CHOLESTEROL / CREATINE PHOSPHOKINASE / CREATININE / LACTATE DEHYDROGENASE / LIPASE / PHOSPHORUS / POTASSIUM / SODIUM / TOTAL BILIRUBIN / TOTAL PROTEIN / URIC ACID / GLUCOSE: tissue Plasma
[1] = 70 mg/kg, 72 h, dose level Low, time 3 day, vehicle 100 % WATER
[2] = 70 mg/kg, 120 h, dose level Low, time 5 day, vehicle 100 % WATER
[3] = 400 mg/kg, 72 h, dose level High, time 3 day, […]
[4] = 400 mg/kg, 120 h, dose level High, time 5 day, […]

## CN(C)CCCN1c2ccccc2CCc2ccc(Cl)cc21 [CLOMIPRAMINE]
[1]
  ABSOLUTE BASOPHIL: 0 CELLS/uL
  ABSOLUTE EOSINOPHIL: 0 CELLS/uL
  ABSOLUTE LYMPHOCYTE: 11511.33 CELLS/uL
  ABSOLUTE MONOCYTE: 50 CELLS/uL
  ABSOLUTE SEGMENTED NEUTROPHIL: 672 CELLS/uL
  BASOPHIL: 0%
  EOSINOPHIL: 0%
  ERYTHROCYTE COUNT: 5.82 x10E6/uL
  HEMATOCRIT: 36.17%
  HEMOGLOBIN: 14.27 G/DL
  LEUKOCYTE COUNT: 12.23 x10E3/uL
  LYMPHOCYTE: 94%
  MEAN CORPUSCULAR HEMOGLOBIN: 24.53 pg
  MEAN CORPUSCULAR HEMOGLOBIN CONCENTRATION: 39.47 G/DL
  MEAN CORPUSCULAR VOLUME: 62.17 fL
  MONOCYTE: 0.33%
  NEUTROPHIL: 5.67%
  NUCLEATED RED BLOOD CELLS: 0.33 /100WBC
  ALANINE AMINOTRANSFERASE: 52.33 u/L
  ALBUMIN: 4.17 G/DL
  ALKALINE PHOSPHATASE: 458.67 u/L
  ASPARTATE AMINOTRANSFERASE: 99 u/L
  BLOOD UREA NITROGEN: 15.67 mg/dL
  CARBON DIOXIDE: 24.67 mmol/L
  CHLORIDE: 101 MEQ/L
  CHOLESTEROL: 73 mg/dL
  CREATINE PHOSPHOKINASE: 853.67 u/L
  CREATININE: 0.22 mg/dL
  LACTATE DEHYDROGENASE: 317.67 u/L
  LIPASE: 9 u/L
  PHOSPHORUS: 13.47 mg/dL
  POTASSIUM: 6.22 MEQ/L
  SODIUM: 146.57 MEQ/L
  TOTAL BILIRUBIN: 0.27 mg/dL
  TOTAL PROTEIN: 6.07 G/DL
  URIC ACID: 1.93 mg/dL
[2]
  ABSOLUTE BASOPHIL: 0 CELLS/uL
  ABSOLUTE EOSINOPHIL: 39.67 CELLS/uL
  ABSOLUTE LYMPHOCYTE: 12212 CELLS/uL
  ABSOLUTE MONOCYTE: 206.67 CELLS/uL
  ABSOLUTE SEGMENTED NEUTROPHIL: 1075 CELLS/uL
  BASOPHIL: 0%
  EOSINOPHIL: 0.33%
  ERYTHROCYTE COUNT: 6.52 x10E6/uL
  HEMATOCRIT: 41.7%
  HEMOGLOBIN: 15.97 G/DL
  LEUKOCYTE COUNT: 13.53 x10E3/uL
  LYMPHOCYTE: 90.33%
  MEAN CORPUSCULAR HEMOGLOBIN: 24.53 pg
  MEAN CORPUSCULAR HEMOGLOBIN CONCENTRATION: 38.27 G/DL
  MEAN CORPUSCULAR VOLUME: 64.07 fL
  MONOCYTE: 1.33%
  NEUTROPHIL: 8%
  NUCLEATED RED BLOOD CELLS: 1 /100WBC
  ALANINE AMINOTRANSFERASE: 54 u/L
  ALBUMIN: 4.67 G/DL
  ALKALINE PHOSPHATASE: 417.67 u/L
  ASPARTATE AMINOTRANSFERASE: 75.33 u/L
  BLOOD UREA NITROGEN: 13.33 mg/dL
  CARBON DIOXIDE: 27.67 mmol/L
  CHLORIDE: 100.33 MEQ/L
  CHOLESTEROL: 74 mg/dL
  CREATINE PHOSPHOKINASE: 213 u/L
  CREATININE: 0.2 mg/dL
  LACTATE DEHYDROGENASE: 196.67 u/L
  LIPASE: 8.67 u/L
  PHOSPHORUS: 12.07 mg/dL
  POTASSIUM: 6.7 MEQ/L
  SODIUM: 146.33 MEQ/L
  TOTAL BILIRUBIN: 0.2 mg/dL
  TOTAL PROTEIN: 6.57 G/DL
  URIC ACID: 1.57 mg/dL

## COC(=O)[C@H](c1ccccc1Cl)N1CCc2sccc2C1 [CLOPIDOGREL]
[3]
  ABSOLUTE BASOPHIL: 0 CELLS/uL
  ABSOLUTE EOSINOPHIL: 86.67 CELLS/uL
  ABSOLUTE LYMPHOCYTE: 12550.67 CELLS/uL
  ABSOLUTE MONOCYTE: 229.67 CELLS/uL
  ABSOLUTE SEGMENTED NEUTROPHIL: 1366.33 CELLS/uL
  BASOPHIL: 0%
  EOSINOPHIL: 0.67%
  ERYTHROCYTE COUNT: 5.22 x10E6/uL
  HEMATOCRIT: 31.7%
  HEMOGLOBIN: 12.8 G/DL
  LEUKOCYTE COUNT: 14.23 x10E3/uL
  LYMPHOCYTE: 88%
  MEAN CORPUSCULAR HEMOGLOBIN: 24.5 pg
  MEAN CORPUSCULAR HEMOGLOBIN CONCENTRATION: 40.4 G/DL
  MEAN CORPUSCULAR VOLUME: 60.77 fL
  MONOCYTE: 1.67%
  NEUTROPHIL: 9.67%
  NUCLEATED RED BLOOD CELLS: 0 /100WBC
  PLATELET COUNT: 1169.33 x10E3/uL
  ALANINE AMINOTRANSFERASE: 98.67 u/L
  ALBUMIN: 3.97 G/DL
  ALKALINE PHOSPHATASE: 463 u/L
  ASPARTATE AMINOTRANSFERASE: 113 u/L
  BLOOD UREA NITROGEN: 13.67 mg/dL
  CARBON DIOXIDE: 27.67 mmol/L
  CHLORIDE: 102.67 MEQ/L
  CHOLESTEROL: 80 mg/dL
  CREATINE PHOSPHOKINASE: 460.67 u/L
  CREATININE: 0.21 mg/dL
  GLUCOSE: 145 mg/dL
  LACTATE DEHYDROGENASE: 361 u/L
  LIPASE: 14.33 u/L
  PHOSPHORUS: 10.53 mg/dL
  POTASSIUM: 6.16 MEQ/L
  SODIUM: 141.23 MEQ/L
  TOTAL BILIRUBIN: 0.23 mg/dL
  TOTAL PROTEIN: 5.47 G/DL
  URIC ACID: 1.13 mg/dL
[4]
  ABSOLUTE BASOPHIL: 0 CELLS/uL
  ABSOLUTE EOSINOPHIL: 131.33 CELLS/uL
  ABSOLUTE LYMPHOCYTE: 15650.33 CELLS/uL
  ABSOLUTE MONOCYTE: 297.33 CELLS/uL
  ABSOLUTE SEGMENTED NEUTROPHIL: 2887.67 CELLS/uL
  BASOPHIL: 0%
  EOSINOPHIL: 0.67%
  ERYTHROCYTE COUNT: 5.21 x10E6/uL
  HEMATOCRIT: 31.5%
  HEMOGLOBIN: 12.6 G/DL
  LEUKOCYTE COUNT: 18.97 x10E3/uL
  LYMPHOCYTE: 84%
  MEAN CORPUSCULAR HEMOGLOBIN: 24.17 pg
  MEAN CORPUSCULAR HEMOGLOBIN CONCENTRATION: 40 G/DL
  MEAN CORPUSCULAR VOLUME: 60.37 fL
  MONOCYTE: 1.67%
  NEUTROPHIL: 13.67%
  NUCLEATED RED BLOOD CELLS: 0 /100WBC
  PLATELET COUNT: 1167.67 x10E3/uL
  ALANINE AMINOTRANSFERASE: 76 u/L
  ALBUMIN: 3.8 G/DL
  ALKALINE PHOSPHATASE: 362.67 u/L
  ASPARTATE AMINOTRANSFERASE: 110.67 u/L
  BLOOD UREA NITROGEN: 16.33 mg/dL
  CARBON DIOXIDE: 26 mmol/L
  CHLORIDE: 101 MEQ/L
  CHOLESTEROL: 86.67 mg/dL
  CREATINE PHOSPHOKINASE: 941 u/L
  CREATININE: 0.15 mg/dL
  GLUCOSE: 135 mg/dL
  LACTATE DEHYDROGENASE: 452.33 u/L
  LIPASE: 12.33 u/L
  PHOSPHORUS: 12.5 mg/dL
  POTASSIUM: 5.63 MEQ/L
  SODIUM: 141.87 MEQ/L
  TOTAL BILIRUBIN: 0.2 mg/dL
  TOTAL PROTEIN: 5.4 G/DL
  URIC ACID: 1.1 mg/dL
